The source of these data is paper PMC12196455, “Effect of Tegoprazan on Tacrolimus and Mycophenolate Levels in Kidney Transplant Recipients: A Randomized Controlled Study Using a Smart Trial Platform” (Pharmaceuticals, 2025).

The conditions of series [1]: result in words, cited from earlier work.
Series [2] in a line: Mycophenolate (mycophenolic acid) trough level (12 h post-dose, PETINIA immunoassay) in the randomized trial of tegoprazan vs pantoprazole. Conditions: mean ± SD. The series is classed as in vivo, human (kidney transplant recipients). An excerpt:
(§1) This study was a prospective, open-label, randomized controlled trial conducted on KTRs receiving tacrolimus, mycophenolate, and steroids. This study was registered at the Clinical Research Information Service (CRIS), Republic of Korea (Registration No. KCT 0010481, registration date: 20 May 2025). Data analysis took place at Kyungpook National University Hospital, Republic of Korea, from August 2022 to May 2023. The trial adhered to the approval guidelines of the Institutional Review Board of Kyungpook National University Hospital (IRB No. 2022-02-013, approval date: 31 March 2022).
(§2) Patients were randomly assigned to either the P-CAB (tegoprazan 50 mg) group or the PPI (pantoprazole 20 mg) group. Enrolled KTRs were scheduled for four visits at baseline, 4, 8, and 12 weeks post-randomization. The dosage of immunosuppressants remained unchanged throughout the 12-week study period. Blood tests, including measurements of immunosuppressant trough levels, serum creatinine levels, estimated glomerular filtration rate (eGFR), and vital signs, were conducted at each visit.
(§3) The primary outcome was to compare changes in drug concentrations of tacrolimus and mycophenolate following the administration of tegoprazan in KTRs.
(§4) Trough levels of tacrolimus and mycophenolate were measured at 12 h post-dose, following standard clinical practice for therapeutic drug monitoring in transplant recipients. Blood samples were collected at scheduled morning visits, and the 12 h interval was confirmed using electronic pillbox adherence data or patient interviews. Tacrolimus concentrations were measured using the Dimension® TAC Flex® reagent cartridge (Siemens Healthcare Diagnostics Inc., Newark, NJ, USA) on the Siemens Dimension® Integrated Chemistry System, employing a homogeneous chemiluminescent immunoassay (CLIA) method. Mycophenolic acid concentrations were measured using the Dimension® MPA Flex® reagent cartridge (Siemens Healthcare Diagnostics Inc., Newark, USA) on the same system, based on a particle-enhanced turbidimetric inhibition immunoassay (PETINIA) method. All assays were conducted in the Department of Laboratory Medicine at the study hospital.

The nature of series [3]: Time in therapeutic range (TTR) analysis of tacrolimus and mycophenolate. The following applies: across all visits; result in words. In kind it is in vivo, human (kidney transplant recipients). The method, then: Continuous variables were expressed as mean ± standard deviation, while categorical variables were presented as numbers and percentages. For normally distributed data, t-tests were utilized; for non-normally distributed data, the Mann–Whitney U test was applied. Intragroup variations between baseline and 12 weeks were analyzed using paired t-tests. Differences in the frequency of transplant outcomes were assessed using the χ^2 test or Fisher’s exact test. Differences in GI symptom questionnaire scores, assessed via e-diary surveys, were analyzed using t-tests or the Mann–Whitney U test, as appropriate. We conducted a TTR analysis for both tacrolimus and mycophenolate to evaluate the potential effects of tegoprazan on immunosuppressant stability. The predefined therapeutic range was set at […] for tacrolimus and at 1–3.5 µg/mL for mycophenolate. TTR was calculated as the proportion of time each drug level remained within the therapeutic window across the study period. All statistical analyses were performed using IBM SPSS Statistics 25 for Windows, […]. A p-value of <0.05 was considered statistically significant.

A short description of series [4]: Tacrolimus blood trough level (12 h post-dose, chemiluminescent immunoassay) in the randomized trial of tegoprazan vs pantoprazole. In kind it is in vivo, human (kidney transplant recipients). Conditions: mean ± SD.
Excerpt: as §1, §2, §3, §4

Series [5] is described as follows: Transplant outcomes (eGFR, de novo DSA, BPAR, allograft loss). In kind it is in vivo, human (kidney transplant recipients). Conditions: for eGFR: mean ± SD. How it is done: Patients were randomly assigned to either the P-CAB (tegoprazan 50 mg) group or the PPI (pantoprazole 20 mg) group. Enrolled KTRs were scheduled for four visits at baseline, 4, 8, and 12 weeks post-randomization. The dosage of immunosuppressants remained unchanged throughout the 12-week study period. Blood tests, including measurements of immunosuppressant trough levels, serum creatinine levels, estimated glomerular filtration rate (eGFR), and vital signs, were conducted at each visit. The collected data included patient demographics such as gender, age, height, weight, blood tacrolimus, mycophenolate concentrations, kidney function, liver function tests, allograft loss, and acute rejection episodes. We collected DSA information. DSA was identified using the Luminex single-antigen assay (LSA). […] The secondary outcome included evaluating transplant outcomes and GI symptoms using questionnaires. The transplant outcomes assessed were changes in eGFR, biopsy-proven acute rejection (BPAR), allograft loss, and de novo DSA during the study period. De novo DSA was defined as the new appearance of antibodies against mismatched donor human leukocyte antigen (HLA) not present at baseline.

Series [6] is described as follows: GI symptom questionnaires (GERD-HRQL, RDQ) via electronic diary app. Set-up: key to GERD-HRQL score: sum of 10 items each scored 0-5; higher = poorer quality of life. The series is classed as in vivo, human (kidney transplant recipients). Conditions: mean ± SD. The method, then: Changes in GI symptoms were measured and recorded using a self-developed electronic diary app installed on participants’ mobile phones. This app facilitated the assessment of GI symptoms through the Gastroesophageal Reflux Disease–Health-Related Quality of Life (GERD-HRQL) and Reflux Disease Questionnaire (RDQ). The GERD-HRQL scale comprises 10 items, addressing both GI symptoms and the patient’s overall condition. Each item is scored on a scale from 0 to 5, with higher scores indicating a poorer quality of life. The RDQ is a 6-item self-administered questionnaire designed to evaluate the severity and frequency of heartburn sensation, gastric acid regurgitation, and dyspepsia.
The secondary outcome included evaluating transplant outcomes and GI symptoms using questionnaires. The transplant outcomes assessed were changes in eGFR, biopsy-proven acute rejection (BPAR), allograft loss, and de novo DSA during the study period. De novo DSA was defined as the new appearance of antibodies against mismatched donor human leukocyte antigen (HLA) not present at baseline.

The next series in a line: Adverse event monitoring. Conditions: 12 weeks. In kind it is in vivo, human (kidney transplant recipients). How it is done:
Safety evaluations were conducted through comprehensive monitoring, including physical examinations, clinical laboratory tests, vital signs, and the documentation of adverse events (AEs). Participants were encouraged to voluntarily report AEs regularly throughout the study.

The conditions of series [7]: result in words, cited from earlier work. This is another data set of the same source.
Where [8] appears, read: P-CAB group (tegoprazan 50 mg, n = 26), Baseline.
[9] abbreviates: P-CAB group (tegoprazan 50 mg, n = 26), Week 4.
The mark [10] stands for this setting: P-CAB group (tegoprazan 50 mg, n = 26), Week 8.
[11] abbreviates: P-CAB group (tegoprazan 50 mg, n = 26), Week 12.
The mark [12] stands for this setting: PPI group (pantoprazole 20 mg, n = 25), Baseline.
The mark [13] stands for this setting: PPI group (pantoprazole 20 mg, n = 25), Week 4.
Setting [14] is: PPI group (pantoprazole 20 mg, n = 25), Week 8.
[15] abbreviates: PPI group (pantoprazole 20 mg, n = 25), Week 12.
The mark [16] stands for this setting: during the 12-week study period.

On to `CNCc1cc(-c2ccccc2F)n(S(=O)(=O)c2cccnc2)c1` [vonoprazan], for which the “Effect on tacrolimus concentration” value in series [1] (KTRs, switching from rabeprazole to vonoprazan, two retrospective studies) is recorded as “increased”. Further, the “Effect on tacrolimus trough levels” value in series [1] (conversion from rabeprazole to vonoprazan, regardless of CYP3A5 genotypes) was “did not alter”.
Regarding `COc1c(C)c2c(c(O)c1C/C=C(\C)CCC(=O)O)C(=O)OC2` [Mycophenolate, mycophenolate], the Mycophenolate trough level in series [2] (setting [8]) was determined as 2.3 ± 1.4 µg/mL; in series [2] (setting [9]), 2.5 ± 1.1 µg/mL; in series [2] (setting [10]), 2.8 ± 1.8 µg/mL; in series [2] (setting [11]), 2.7 ± 1.4 µg/mL; in series [2] (setting [12]), 2.6 ± 1.3 µg/mL; in series [2] (setting [13]), 2.7 ± 1.1 µg/mL. In addition, the Mycophenolate trough level was determined as 2.7 ± 2.4 µg/mL in series [2] (setting [14]) and 2.6 ± 1.4 µg/mL in series [2] (setting [15]). The “Time in therapeutic range (TTR), P-CAB vs PPI group” value in series [3] was “comparable between the two groups”.
In the case of `C=CC[C@@H]1/C=C(\C)C[C@H](C)C[C@H](OC)[C@H]2O[C@@](O)(C(=O)C(=O)N3CCCC[C@H]3C(=O)O[C@H](/C(C)=C/[C@@H]3CC[C@@H](O)[C@H](OC)C3)[C@H](C)[C@@H](O)CC1=O)[C@H](C)C[C@@H]2OC` [Tacrolimus, tacrolimus], the Tacrolimus trough level in series [4] (setting [8]) worked out at 5.0 ± 1.6 ng/mL; in series [4] (setting [9]), 5.3 ± 1.3 ng/mL; in series [4] (setting [10]), 6.3 ± 1.9 ng/mL; in series [4] (setting [11]), 5.5 ± 1.6 ng/mL; in series [4] (setting [12]), 5.4 ± 1.4 ng/mL; in series [4] (setting [13]), 5.5 ± 1.6 ng/mL. The Tacrolimus trough level amounted to 5.7 ± 2.4 ng/mL in series [4] (setting [14]) and 5.8 ± 2.0 ng/mL in series [4] (setting [15]). For the same compound, the “Time in therapeutic range (TTR), P-CAB vs PPI group” value in series [3] is given as “comparable between the two groups”.
On to `COc1ccnc(C[S+]([O-])c2nc3ccc(OC(F)F)cc3[nH]2)c1OC` (centres unmarked) [PPI, pantoprazole], for which, in series [5] (Baseline), the eGFR was found to be 57.7 ± 14.9 mL/min/1.73 m^2. The eGFR in series [5] (Week 4) was 60.1 ± 14.8 mL/min/1.73 m^2. The same compound had an eGFR in series [5] (Week 8) of 63.6 ± 14.1 mL/min/1.73 m^2. Besides, the eGFR in series [5] (Week 12) stood at 60.6 ± 14.7 mL/min/1.73 m^2. In series [5] (setting [16]), the “Allograft Loss” value is on record as 0 number and the BPAR was 0 number. Moreover, the RDQ score in series [6] (Baseline) is 3.2 ± 3.3. The same compound gave a GERD-HRQL score in series [6] (Baseline, higher score = poorer quality of life) of 2.8 ± 2.3. In series [6] (Week 4), this compound gave a GERD-HRQL score of 0.7 ± 1.2 and an RDQ score of 0.3 ± 0.9. In series [6] (Week 8), this compound came in with a GERD-HRQL score of 0.9 ± 1.8 and an RDQ score of 0.4 ± 1.0. In series [6] (Week 12), this compound came in with a GERD-HRQL score of 0.5 ± 1.1 and an RDQ score of 0.7 ± 2.0. In addition, in the series “Adverse event monitoring”, the “AE: Abdominal discomfort” value is 2 (8.0) number (%), the “AE: Arthralgia” value is given as 0 (0.0) number (%), the “AE: COVID-19” value is 2 (8.0) number (%) and the “AE: Constipation” value was 0 (0.0) number (%). Moreover, in “Adverse event monitoring”, the “AE: Diarrhea” value was 0 (0.0) number (%), the “AE: Headache” value is given as 1 (4.0) number (%), the “AE: Hypertension” value is reported as 0 (0.0) number (%) and the “AE: Hypoglycemia” value is reported as 0 (0.0) number (%). Further, in “Adverse event monitoring”, the “AE: Myalgia” value is on record as 1 (4.0) number (%); the “AE: Nausea, vomiting” value is on record as 0 (0.0) number (%); the “AE: Productive cough, sputum” value is 0 (0.0) number (%); the “AE: Pyrexia” value was 1 (4.0) number (%). In the series “Adverse event monitoring”, the “AE: Toothache” value was 1 (4.0) number (%), the “AE: Upper respiratory tract infection” value is recorded as 1 (4.0) number (%), the “AE: Urinary tract infection” value is 1 (4.0) number (%) and the “AE: Vertigo” value is reported as 1 (4.0) number (%). For the same compound, in the series “Adverse event monitoring”, the “Participants with AEs” value was 7 (28.0) number (%), the “Participants with SAEs” value is recorded as 0 (0.0) number (%) and the “Withdrawal due to AEs” value is 0 (0.0) number (%). Also, the “Overall incidence of AEs” value in “Adverse event monitoring” (p = 0.032 between groups) stood at 28.0%. The “Effect on trough levels of tacrolimus and cyclosporine” value in series [7] (12 solid organ transplant patients, five consecutive days of therapy) is reported as “did not affect”. The “Effect on serum trough levels of tacrolimus” value in series [7] (liver transplant recipients, co-administration over one year) was “does not influence”.
